Here are results for four compounds from patent US20170071928A1, “METHODS AND PHARMACEUTICAL COMPOSITIONS FOR TREATING DISEASES ASSOCIATED WITH ALTERED SERT ACTIVITY” (THE TRUSTEES OF COLUMBIA UNIVESITY IN THE CITY OF NEW YORK, priority 2014, published 2017).

Molecules are shown by their SMILES. Read-outs that look alike come from different tables or passages of the source.

Test [1] deals with ENCDC isolated from E15 fetal mouse gut. The test can be described thus: Development/survival of enteric neurons from cultured ENCDC isolated from E15 fetal mouse gut. The conditions noted are these: ENCDC culture; for development/survival of total enteric neurons / development/survival of early-born (calretinin) neurons / development/survival of late-born enteric neurons that express TH or GABA / effect on development/survival of late-born neurons compared with total neurons: serum-free media; for development/survival of total enteric neurons: prucalopride 2.5 μM, BIMU-8 2.5 μM; for development/survival of early-born (calretinin) neurons / development/survival of late-born enteric neurons that express TH or GABA / effect on development/survival of late-born neurons compared with total neurons: 2.5 μM. The format is cell-based. The protocol:
Immunocytochemistry was performed as follows: HuC/D, TH, g-aminobutyric acid (GABA), nNOS, and CGRP were located immunocytochemically to determine the abundance of total, dopaminergic, GABAergic, nitrergic and CGRP-expressing enteric neurons in G56A mice and their respective WT littermates. SERT immunoreactivity was also investigated to determine whether or not it is coincident with TH immunoreactivity in the myenteric plexus. In each experimental group, tissue samples were collected from ilea of 6-8 animals, fixed with 4% formaldehyde for 1.5 hours and washed in PBS. Whole mount preparations of longitudinal muscle with attached myenteric plexus (LMMP) were prepared by dissection. Cultured cells were fixed with 4% formaldehyde for 30 minutes and washed in PBS. Preparations were blocked with 10% normal horse serum for 30 minutes at room temp and then incubated for 48 or 72 hours at 4° C. with primary antibodies. Bound primary antibodies were visualized, respectively, with streptavidin-Alexa 594 for mouse monoclonal antibodies, and donkey antibodies to goat, rabbit, or sheep IgG coupled to Alexa 350, 488 or 594 (diluted 1:200; Invitrogen). Preparations were washed with PBS, mounted in buffered glycerol, and examined with a Leica CTR 6000 microscope. Images were obtained with a cooled CCD camera and analyzed with computer assistance (Volocity 5.4 imaging software; Improvision, Waltham, Mass.). To count the numbers of HuC/D-immunoreactive cells in each LMMP preparation, a motorized stage under computer control was used to scan and collect images with a 40× objective covering the entirety of a 10 mm^2 area. To count the numbers of CGRP-, nNOS- and TH-immunoreactive cells a similar procedure was used, except that images were collected with a 20× objective and that an area of 30 mm^2 was scanned. The higher magnification was needed for HuC/D-immunoreactive cells to be certain that overlapping cells could be distinguished. The lower magnification was advantageous for TH-immunoreactive cells, which are widely separated and relatively rare, because the cells were scattered and large numbers could be imaged for statistical reliability. The collected images were processed using a computer running Volocity 5.6 software to determine the numbers of immunoreactive cells of each type, which were presented as cells/mm^2. TH-immunoreactive terminal axons in the myenteric plexus of ileum of four G56A SERT and four WT mice were examined to study the effects of G56A SERT on the density of extrinsic sympathetic terminals. Sympathetic axons are far more abundant that dopaminergic axons in the myenteric plexus. Their large varicosities and coarse structure also distinguish sympathetic from dopaminergic axons. Dopaminergic neurons, moreover, are primarily located in the submucosal plexus. In each preparation, 3 images were obtained with a 40× objective. The total area occupied by TH-immunoreactive terminals in each image was obtained with computer assistance (Volocity 5.6 software; Improvision, Perkin Elmer).
The hypothesis was tested that 5-HT-promoted enteric neurogenesis is 5-HT4-mediated. The responsible receptor was also sought. ENCDC were isolated from E15 fetal mouse gut with antibodies to p75NTR and cultured in serum-free media. […] The 5-HT4 antagonist, GR113808 (1.0 μM), prevented 5-HT, prucalopride, or BIMU-8 from enhancing development/survival of total dopaminergic or GABAergic neurons.

For test [2], the system named is G56A mice. The test can be described thus: Small intestinal transit (rhodamine B dextran geometric center) with exogenous 5-HT. The following applies: G56A mice compared to WT mice (FIG. 2D). Type of test: in vivo, mouse. The protocol: For analysis of gastric emptying and small intestinal transit, mice were fasted overnight in cages that lacked bedding. Water was withdrawn 3 hours before the experiment. A solution containing rhodamine B dextran (100 μl; 10 mg/ml in 2% methylcellulose, Invitrogen, Carlsbad, Calif.) was administered to each mouse by gavage through a 21-gauge round-tip feeding needle. Animals were euthanized 15 minutes after gavage; the stomach, small intestine, cecum, and colon were collected in 0.9% NaCl. The small intestine was divided into 10 segments of equal length and the colon (used to obtain total recovered rhodamine B fluorescence) was divided in half. […] Rhodamine fluorescence was measured in 1 ml aliquots of the supernatant (VersaFluor™ Fluorometer; BIO-RAD Laboratories, Hercules, Calif.). The proportion of the Rhodamine B dextran that emptied from the stomach was calculated as [(total recovered fluorescence−fluorescence remaining in the stomach)/(total recovered fluorescence)]×100.
Small intestinal transit was estimated by the position of the geometric center of the Rhodamine B dextran in the small bowel (Miller et al., 1981). For each segment of the small intestine (1-10), the geometric center (a) was calculated as: a=(fluorescence in each segment×number of the segment)/(total fluorescence recovered in the small intestine). […]

Test [3] has as its system G56A mice. The test can be described thus: GI motility in mature offspring after prenatal and nursing prucalopride treatment, G56A mice. Type of test: in vivo, mouse. The conditions noted are these: prucalopride oral in dams' drinking water (24 mg in 350 ml) from early pregnancy until weaning, then stopped. The protocol: (§1) Carmine red, which cannot be absorbed from the lumen of the gut, was used to study total GI transit time (Kimball et al., 2005). A solution of carmine red (300 μl; 6%; Sigma Aldrich, St. Louis, Mo.) suspended in 0.5% methylcellulose (Sigma Aldrich, St. Louis, Mo.) was administered by gavage through a 21-gauge round-tip feeding needle. The time at which gavage took place was recorded as TO. After gavage, fecal pellets were monitored at 10 minutes intervals for the presence of carmine red. Total GI transit time was considered as the interval between TO and the time of first observance of carmine red in stool.
(§2) Colonic motility was studied as previously described (Li et al., 2006). Briefly, the animals were anesthetized with isoflurane (Baxter Pharmaceutical Products Inc, Deerfield, Ill.). A glass bead (3 mm in diameter) was pushed into the colon to a distance of 2 cm from the anal verge. The time required for expulsion of the glass bead was measured and taken as an estimate of colonic motility.
(§3) The dose of prucalopride was 24 mg into 350 ml of water and the mice were assumed to drink about 5 ml/day. After birth, the prucalopride was continued in the drinking water, and was thus delivered to the newborn and suckling pups via breast milk. When the pups were weaned, the prucalopride was stopped; therefore, the exogenous 5-HT4 stimulation was allowed to cease. […]

The next test concerns WT mice. The test can be described thus: GI motility in mature offspring after prenatal and nursing prucalopride treatment, WT mice. Type of test: in vivo, mouse. The following applies: prucalopride treatment of fetal and nursing mice. The protocol:
as §1, §2, §3

Test [4] has as its system wild-type adult mice and mice lacking 5-HT4 receptors. The conditions noted are these: cited from earlier work.

`NCCc1c[nH]c2ccc(O)cc12` [5-HT, 5-hydroxytryptamine]: the “development/survival of total enteric neurons” value in test [1] is given as “enhanced the development/survival of total enteric neurons”. The “ability to accelerate small intestinal transit” value in the test with G56A mice [2] was “impaired”.

With `CC(C)n1c(=O)n(C(=O)NC2CC3CCC(C2)N3C)c2ccccc21` (stereo not drawn) [BIMU-8], in test [1], the “development/survival of early-born (calretinin) neurons” value was “Neither prucalopride nor BIMU-8 enhanced”, the “development/survival of late-born enteric neurons that express TH or GABA” value was “increased development/survival”, the “effect on development/survival of late-born neurons compared with total neurons” value is recorded as “significantly greater than on total” and the “development/survival of total enteric neurons” value was “enhanced the development/survival of total enteric neurons”.

Regarding `Cn1cc(C(=O)OCC2CCN(CCNS(C)(=O)=O)CC2)c2ccccc21` [GR113808], in test [1] (GR113808 1.0 μM), the “antagonism of the enhancement by 5-HT, prucalopride or BIMU-8 of development/survival of total dopaminergic or GABAergic neurons” value is listed as “prevented”.

With `COCCCN1CCC(NC(=O)c2cc(Cl)c(N)c3c2OCC3)CC1` [prucalopride], in test [1], the “development/survival of early-born (calretinin) neurons” value is “Neither prucalopride nor BIMU-8 enhanced”, the “development/survival of late-born enteric neurons that express TH or GABA” value is given as “increased development/survival”, the “effect on development/survival of late-born neurons compared with total neurons” value is “significantly greater than on total” and the “development/survival of total enteric neurons” value is “enhanced the development/survival of total enteric neurons”. Further, the “GI motility in offspring at ages 2-3 months” value in the test with G56A mice [3] is on record as “restored to normal”. In addition, in the test with WT mice, the “GI motility in the mature animals” value was “not found to exert significant effects”. In addition, in test [4] (adult mice lacking 5-HT4 receptors), the enteric neurogenesis result is reported as “not in those lacking 5-HT4 receptors”. The enteric neurogenesis result in test [4] (wild-type adult mice) was “stimulate enteric neurogenesis”.
